Each structure is given as a SMILES string.

For assay [1], the target named is T1, MD2 (myeloid differentiation protein 2; rhMD2) (Homo sapiens, UniProt Q9Y6Y9).
T1 construct: gene LY96; recombinant human MD2 (rhMD2)
T1 sequence (Q9Y6Y9 19-160): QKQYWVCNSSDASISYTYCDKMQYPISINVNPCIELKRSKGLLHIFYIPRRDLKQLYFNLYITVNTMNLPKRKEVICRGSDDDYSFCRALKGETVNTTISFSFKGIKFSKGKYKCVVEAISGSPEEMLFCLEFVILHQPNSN
The assay can be described thus: SPR (ProteOn XPR36); confirmed on ForteBio Octet HTX (KD=[…]) and by biotin-PA ELISA. It counts as binding.

Assay [2] addresses T1, MD2 (myeloid differentiation protein 2; rhMD2). As to the kind of experiment: ForteBio Octet HTX (called SPR in the paper). Format: binding.

For orientation: Kd means a measure of binding affinity in units of concentration. For the compound `CCCCCCCCCCCCCCCC(=O)O` [PA, palmitic acid], in assay [1], the Kd was determined as 31.6 µM.

Turning to `CCCCC/C=C\C/C=C\CCCCCCCC(=O)O` [linoleic acid], in assay [2], binding was put at a Kd of 54 µM.

For `CCCCCCCC/C=C\CCCCCCCC(=O)O` [oleic acid], the Kd in assay [2] (read-out: Kd) amounted to 35 µM.

These data come from article PMC5216130, “Saturated palmitic acid induces myocardial inflammatory injuries through direct binding to TLR4 accessory protein MD2” (Nature Communications, 2017).
